# Where “and” joins values, the source holds several entries; their conditions need not be identical. Equal entries are not always repeated. Toxic doses and inconclusive results are not listed.
# System: L1210 leukemia ip in BDF1 mice, survival T/C
# Test: NCI In Vivo Anticancer Drug Screen. Data for tumor model L1210 Leukemia (intraperitoneal) in B6D2F1 (BDF1) mice
# Conditions: endpoint: mean survival time, higher = longer survival
# In short: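 Value reflects the ratio of survival in compound-treated mice to survival in vehicle-treated controls, with both groups carrying the same transplanted tumor.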
# [1] = dose: 100.0 mg/kg/injection, schedule: Q01DX009 (ip), vehicle: saline with Tween-80
# [2] = dose: 100.0 mg/kg/injection, schedule: Q04DX002 (ip), vehicle: saline with Tween-80
# [3] = dose: 200.0 mg/kg/injection, schedule: Q01DX009 (ip), vehicle: saline with Tween-80
# [4] = dose: 200.0 mg/kg/injection, schedule: Q04DX002 (ip), vehicle: saline with Tween-80
# [5] = dose: 400.0 mg/kg/injection, schedule: Q01DX009 (ip), vehicle: saline with Tween-80
# [6] = dose: 400.0 mg/kg/injection, schedule: Q04DX002 (ip), vehicle: saline with Tween-80
# [7] = dose: 100.0 mg/kg/injection, schedule: Q04DX003 (ip), vehicle: saline
# [8] = dose: 100.0 mg/kg/injection, schedule: Q04DX003 (ip), vehicle: Klucel (hydroxypropylcellulose) (HPC)
# [9] = dose: 200.0 mg/kg/injection, schedule: Q04DX003 (ip), vehicle: Klucel (hydroxypropylcellulose) (HPC)
# [10] = dose: 400.0 mg/kg/injection, schedule: Q04DX003 (ip), vehicle: Klucel (hydroxypropylcellulose) (HPC)
smiles,measurement,setting,value
CCOP(=S)(OCC)S/C(C(=O)NC)=C(/C)O,T/C,"dose: 6.25 mg/kg/injection, schedule: Q01DX009 (ip), vehicle: Klucel (hydroxypropylcellulose) (HPC)",94 % of control
same,T/C,"dose: 12.5 mg/kg/injection, schedule: Q01DX009 (ip), vehicle: Klucel (hydroxypropylcellulose) (HPC)",97 % of control
same,T/C,"dose: 100.0 mg/kg/injection, schedule: Q04DX003 (sc), vehicle: olive oil, sesame oil, peanut oil",103 % of control
same,T/C,"dose: 200.0 mg/kg/injection, schedule: Q04DX003 (sc), vehicle: olive oil, sesame oil, peanut oil",106 % of control
O=C1c2ccccc2C(=O)c2cc3nc4c5ccccc5c5ccccc5c4nc3cc21,T/C,[1],93 % of control
same,T/C,[2],103 % of control
same,T/C,[3],90 % of control
same,T/C,[4],97 % of control
same,T/C,[5],97 % of control
same,T/C,[6],100 % of control
C/C(=N/NC(N)=S)c1ccc(F)cc1,T/C,"dose: 9.38 mg/kg/injection, schedule: Q01DX009 (ip), vehicle: Klucel (hydroxypropylcellulose) (HPC)",95 % of control
same,T/C,"dose: 18.75 mg/kg/injection, schedule: Q01DX009 (ip), vehicle: Klucel (hydroxypropylcellulose) (HPC)",92 % of control
CC(N)C(=O)O (stereo not drawn),T/C,"dose: 25.0 mg/kg/injection, schedule: Q04DX002 (ip), vehicle: saline",101 % of control
same,T/C,"dose: 50.0 mg/kg/injection, schedule: Q04DX002 (ip), vehicle: saline",101 % of control
same,T/C,"dose: 100.0 mg/kg/injection, schedule: Q01DX001 (ip), vehicle: saline",92 % of control
same,T/C,"dose: 100.0 mg/kg/injection, schedule: Q01DX009 (ip), vehicle: saline",104 % of control
same,T/C,"dose: 100.0 mg/kg/injection, schedule: Q04DX002 (ip), vehicle: saline",104 % of control
same,T/C,[7],97 % of control
same,T/C,"dose: 200.0 mg/kg/injection, schedule: Q01DX001 (ip), vehicle: saline",96 % of control
same,T/C,"dose: 200.0 mg/kg/injection, schedule: Q01DX009 (ip), vehicle: saline",91 % of control
same,T/C,"dose: 200.0 mg/kg/injection, schedule: Q04DX003 (ip), vehicle: saline",100 % of control
same,T/C,"dose: 400.0 mg/kg/injection, schedule: Q01DX001 (ip), vehicle: saline",105 % of control
same,T/C,"dose: 400.0 mg/kg/injection, schedule: Q01DX009 (ip), vehicle: saline",98 % of control
same,T/C,"dose: 400.0 mg/kg/injection, schedule: Q04DX003 (ip), vehicle: saline",100 % of control
CCCCNc1c(C(=O)OCC)c[nH]c(=O)c1C(C)=O,T/C,[8],97 % of control
same,T/C,[9],97 % of control
same,T/C,[10],87 % of control
O=c1c(N=Nc2ccc(Br)cc2)c(O)n(-c2ccccc2)c(=S)n1-c1ccccc1,T/C,"dose: 100.0 mg/kg/injection, schedule: Q01DX001 (ip), vehicle: Klucel (hydroxypropylcellulose) (HPC)",105 % of control
same,T/C,"dose: 200.0 mg/kg/injection, schedule: Q01DX001 (ip), vehicle: Klucel (hydroxypropylcellulose) (HPC)",102 % of control
same,T/C,"dose: 400.0 mg/kg/injection, schedule: Q01DX001 (ip), vehicle: Klucel (hydroxypropylcellulose) (HPC)",102 % of control
ONc1nc(NO)c2[nH]cnc2n1,T/C,"dose: 0.25 mg/kg/injection, schedule: Q01DX009 (ip), vehicle: other",109 % of control
same,T/C,"dose: 1.2 mg/kg/injection, schedule: Q01DX009 (ip), vehicle: carboxymethylcellulose (CMC)",115 % of control
same,T/C,"dose: 2.5 mg/kg/injection, schedule: Q01DX009 (ip), vehicle: other",165 % of control
same,T/C,"dose: 3.7 mg/kg/injection, schedule: Q01DX009 (ip), vehicle: carboxymethylcellulose (CMC)",150 % of control
same,T/C,"dose: 5.0 mg/kg/injection, schedule: Q01DX009 (ip), vehicle: other",202 % of control
same,T/C,"dose: 10.0 mg/kg/injection, schedule: Q01DX009 (ip), vehicle: other",210 % of control
same,T/C,"dose: 10.5 mg/kg/injection, schedule: Q01DX009 (ip), vehicle: other",203 % of control
same,T/C,"dose: 18.0 mg/kg/injection, schedule: Q01DX009 (ip), vehicle: other",265 % of control
same,T/C,"dose: 18.7 mg/kg/injection, schedule: Q01DX009 (oral), vehicle: carboxymethylcellulose (CMC)",114 % of control
same,T/C,"dose: 30.0 mg/kg/injection, schedule: Q01DX009 (ip), vehicle: carboxymethylcellulose (CMC)",150 % of control
same,T/C,"dose: 30.0 mg/kg/injection, schedule: Q01DX009 (ip), vehicle: other",192 % of control
same,T/C,"dose: 44.0 mg/kg/injection, schedule: Q01DX001 (ip), vehicle: carboxymethylcellulose (CMC)",154 % of control
same,T/C,"dose: 60.0 mg/kg/injection, schedule: Q01DX009 (ip), vehicle: carboxymethylcellulose (CMC)",150 % of control and 153 % of control
same,T/C,"dose: 66.0 mg/kg/injection, schedule: Q01DX001 (ip), vehicle: carboxymethylcellulose (CMC)",172 % of control
same,T/C,"dose: 75.0 mg/kg/injection, schedule: Q01DX009 (oral), vehicle: carboxymethylcellulose (CMC)",122 % of control
same,T/C,"dose: 100.0 mg/kg/injection, schedule: Q01DX001 (ip), vehicle: carboxymethylcellulose (CMC)",175 % of control
same,T/C,"dose: 150.0 mg/kg/injection, schedule: Q01DX001 (ip), vehicle: carboxymethylcellulose (CMC)",214 % of control
CC1=C(C)C2(C)C1(C)C1(C)NN=NC12c1ccccc1 (stereo not drawn),T/C,"dose: 100.0 mg/kg/injection, schedule: Q04DX003 (ip), vehicle: saline with Tween-80",95 % of control
same,T/C,"dose: 200.0 mg/kg/injection, schedule: Q04DX003 (ip), vehicle: saline with Tween-80",91 % of control
same,T/C,"dose: 400.0 mg/kg/injection, schedule: Q04DX003 (ip), vehicle: saline with Tween-80",101 % of control
CS(=O)(=NC(=S)Nc1ccccc1)c1ccccc1 (stereo not drawn),T/C,"dose: 75.0 mg/kg/injection, schedule: Q01DX009 (ip), vehicle: saline",97 % of control
same,T/C,"dose: 150.0 mg/kg/injection, schedule: Q01DX009 (ip), vehicle: saline",100 % of control
same,T/C,"dose: 300.0 mg/kg/injection, schedule: Q01DX009 (ip), vehicle: saline",100 % of control
Fc1c(F)c(F)c([Si](c2c(F)c(F)c(F)c(F)c2F)(c2c(F)c(F)c(F)c(F)c2F)c2c(F)c(F)c(F)c(F)c2F)c(F)c1F,T/C,"dose: 100.0 mg/kg/injection, schedule: Q01DX001 (ip), vehicle: saline with Tween-80",96 % of control
same,T/C,"dose: 200.0 mg/kg/injection, schedule: Q01DX001 (ip), vehicle: saline with Tween-80",91 % of control
same,T/C,"dose: 400.0 mg/kg/injection, schedule: Q01DX001 (ip), vehicle: saline with Tween-80",86 % of control
NC(N)=NC1CCCC1,T/C,[7],104 % of control
COc1ccc(C=Nc2ccc3c(c2)OCO3)cc1Br,T/C,[1],88 % of control
same,T/C,[2],108 % of control
same,T/C,[3],101 % of control
same,T/C,[4],102 % of control
same,T/C,[5],103 % of control
same,T/C,[6],97 % of control
CC1(C)C2CCC(CCOC(=O)COc3ccc(Cl)cc3)C1C2 (stereo not drawn),T/C,[8],98 % of control
same,T/C,[9],100 % of control
same,T/C,[10],100 % of control
NC(=S)NNc1ccccc1,T/C,[2],105 % of control
same,T/C,[4],105 % of control
CC[C@@H](O)C[C@H]1CCC[C@@]2(C[C@@H]3OC(=O)/C=C/[C@@](C)(O)[C@@H](O)[C@H](C)[C@@H](O)[C@H](OC4CCC(N(C)C)C(C)O4)[C@@H](O)[C@](C)(O)CCCCC/C=C/[C@@H]4CC(C)(C)O[C@@]4(O)C[C@H](O2)[C@H]3C)O1 (stereo partly drawn),T/C,"dose: 0.25 mg/kg/injection, schedule: Q04DX003 (ip), vehicle: saline",104 % of control
same,T/C,"dose: 0.5 mg/kg/injection, schedule: Q04DX003 (ip), vehicle: saline",111 % of control
same,T/C,"dose: 1.0 mg/kg/injection, schedule: Q04DX003 (ip), vehicle: saline",94 % of control
same,T/C,"dose: 150.0 micrograms/kg/injection, schedule: Q01DX Z (sc), vehicle: steriod suspending solution",108 % of control
same,T/C,"dose: 230.0 micrograms/kg/injection, schedule: Q01DX Z (sc), vehicle: steriod suspending solution",102 % of control
same,T/C,"dose: 345.0 micrograms/kg/injection, schedule: Q01DX Z (sc), vehicle: steriod suspending solution",91 % of control
COP(=O)(OC)C1C2CC3C(C2)C31 (stereo not drawn),T/C,"dose: 100.0 mg/kg/injection, schedule: Q04DX003 (ip), vehicle: acetone",103 % of control
same,T/C,"dose: 200.0 mg/kg/injection, schedule: Q04DX003 (ip), vehicle: acetone",97 % of control
same,T/C,"dose: 400.0 mg/kg/injection, schedule: Q04DX003 (ip), vehicle: acetone",100 % of control
CC(C)(C)C(=O)c1ccc(-c2ccccc2)cc1,T/C,"dose: 100.0 mg/kg/injection, schedule: Q04DX002 (ip), vehicle: other",91 % of control
same,T/C,"dose: 200.0 mg/kg/injection, schedule: Q04DX002 (ip), vehicle: other",94 % of control
same,T/C,"dose: 400.0 mg/kg/injection, schedule: Q04DX002 (ip), vehicle: other",94 % of control
Cc1cc(Br)cc(C(=O)Cl)c1O,T/C,[2],92 % of control
same,T/C,[4],96 % of control
same,T/C,[6],100 % of control

# — PubChem BioAssay AID248 (DTP/NCI, 2004)
